Measurements taken from patent publication US20110269811A1, “INHIBITORS OF SEMICARBAZIDE-SENSITIVE AMINE OXIDASE (SSAO) AND VAP-1 MEDIATED ADHESION USEFUL FOR TREATMENT AND PREVENTION OF DISEASES” (priority 2006, published 2011).

Key:
[1] = tested on: antibody-mediated collagen-induced arthritis; assay: Anti-collagen antibody-induced arthritis in mice; format: in vivo; settings: 30 mg/kg, i.p., once daily, days 1-10; FIG. 4
From the text: Collagen-induced arthritis (CIA) in mice is widely used as an experimental model for rheumatoid arthritis (RA) in humans. CIA is mediated by autoantibodies to a particular region of type II collagen and complement. The murine CIA model used in this study is called antibody-mediated CIA, and can be induced by i.v. injection of a combination of different anti-type II collagen monoclonal antibodies (Terato K., et al. (1995). Autoimmunity. 22:137). Several compounds have been used to successfully block inflammation in this model, including anti-α1β1 and […] integrins monoclonal antibodies (de Fougerolles A. R. (2000) J. Clin. Invest. 105: 721).
In this example, arthrogen-collagen-induced arthritis antibody kits were purchased from Chemicon International (Temecula, Calif.) and arthritis was induced using the manufacturer's protocol. Mice were injected i.v. with a cocktail of 4 anti-collagen Type II monoclonal antibodies (1.5 mg each) on day 0, followed by i.p. injection of 25 μg lipopolysaccharide (LPS) on day 2. […] Severity of arthritis in each limb was scored for 3-4 weeks as follows: 0=normal; 1=mild redness, slight swelling of ankle or wrist; 2=moderate redness and swelling of ankle or wrist; 3=severe redness and swelling of some digits, ankle and paw; 4=maximally inflamed limb, with a maximum score of 16 per animal. […]

[2] = tested on: carrageenan-induced paw edema; assay: Carrageenan-induced rat paw edema; format: in vivo, Sprague Dawley rats; settings: for paw swelling: 50 mg/kg orally 60 min prior to carrageenan
From the text: Carrageenan-induced paw edema has been extensively used in the evaluation of anti-inflammatory effects of various therapeutic agents and is a useful experimental system for assessing the efficacy of compounds to alleviate acute inflammation (Whiteley P E and Dalrymple S A, 1998. Models of inflammation: carrageenan-induced paw edema in the rat, in Current Protocols in Pharmacology. Enna S J, Williams M, Ferkany J W, Kenaki T, Porsolt R E and Sullivan J P, eds., pp 5.4.1-5.4.3, John Wiley & Sons, New York). The full development of the edema is neutrophil-dependent (Salvemini D. et al. (1996) Br. J. Pharmacol. 118: 829).
Female Sprague Dawley rats were used in groups of 8-12 and compounds of the invention were administered orally at up to 50 mg/kg 60 min prior to carrageenan exposure. The control group was administered orally an equal volume of vehicle (PBS). Edema in the paws was induced as previously described by injecting 50 μL of a 0.5% solution of carrageenan (Type IV Lambda, Sigma) in saline with a 27-G needle s.c. in the right foot pad. (See Whiteley P. E. and Dalrymple S. A. (1998), Models of inflammation: carrageenan-induced paw edema in the rat, in Current Protocols in Pharmacology, Enna S J, Williams M, Ferkany J W, Kenaki T, Porsolt R E and Sullivan J P, eds., pp 5.4.1-5.4.3, John Wiley & Sons, New York) The size of the tested foot of each animal was measured volumetrically with a plethysmometer immediately after injection of carrageenan solution and at various times up to 360 min after carrageenan induction.
Results of experiments with the compounds II-1-E, I-1-Z, and I-2-Z are shown in FIG. 1, FIG. 5, and FIG. 6, respectively.
Using the same procedure discussed above, the size of the foot of each animal was measured volumetrically before induction of edema, and at 1.5, 3, 4.5 and 6 h after the carrageenan injection. The absolute decreases in paw swelling at 6 h with 1, 10 and 50 mg/kg were 5±11%, 20±9% and 32±6% respectively. Statistical analyses were performed with repeated measures ANOVA followed by Dunnett's test for multiple comparisons.
Paw edema was induced in groups of eight Sprague Dawley rats by injecting 50 μL of a 0.375% solution of carrageenan X in saline, subcutaneously in the foot. After one hour animals were orally dosed once with PBS, compound I-1-Z at 50 mg/kg or with indomethacin at 3 mg/kg. The size of the paws were measured before induction of edema (baseline), and at 1.5, 3, 4.5 and 6 h after carrageenan injection. […] Statistical analyses were performed with repeated measures ANOVA followed by Dunnett's test for multiple comparisons.
Groups of eight Sprague Dawley rats were orally administered PBS, or 0.01, 0.1 or 1 mg/kg of compound I-1-Z. One hour later paw edema was induced in all animals by injecting 50 μL of a 0.5% solution of carrageenan X in saline, subcutaneously into the footpad. The size of the foot of each animal was measured volumetrically before induction of edema, and at 1.5, 3, 4.5 and 6 h after the carrageenan injection. The absolute decreases in paw swelling at 6 h with 0.1 and 1 mg/kg were 34±8 and 29±8% respectively. Statistical analyses were performed with repeated measures ANOVA followed by Dunnett's test for multiple comparisons.

CGRP (h) = biological target: T1, CGRP (h) (Homo sapiens, UniProt O60894+Q16602); assay: Receptor binding screen, [^125I]hCGRPα; settings: 10 uM Concentration of Compound I-1-Z; read-out: Mean Value, percent inhibition of control specific binding: CGRP (h)
T1 construct: expressed in transfected cells; host or cells: CHO cells
T1 sequence (Q16602 23-461): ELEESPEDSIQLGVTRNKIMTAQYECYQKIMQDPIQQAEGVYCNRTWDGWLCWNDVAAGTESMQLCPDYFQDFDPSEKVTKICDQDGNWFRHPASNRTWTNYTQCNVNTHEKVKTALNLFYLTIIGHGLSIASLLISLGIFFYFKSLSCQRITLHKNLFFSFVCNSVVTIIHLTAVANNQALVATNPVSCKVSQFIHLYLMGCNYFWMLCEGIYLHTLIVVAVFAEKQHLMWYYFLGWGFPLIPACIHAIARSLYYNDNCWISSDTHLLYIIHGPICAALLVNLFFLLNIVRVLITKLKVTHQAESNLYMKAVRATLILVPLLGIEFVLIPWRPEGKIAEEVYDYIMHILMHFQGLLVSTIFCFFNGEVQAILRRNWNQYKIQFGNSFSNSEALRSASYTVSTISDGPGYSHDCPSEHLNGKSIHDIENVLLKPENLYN
T1 sequence (O60894 27-148): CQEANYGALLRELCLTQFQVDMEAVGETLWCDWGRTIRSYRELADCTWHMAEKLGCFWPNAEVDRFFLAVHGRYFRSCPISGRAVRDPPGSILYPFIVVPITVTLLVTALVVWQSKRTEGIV

MT1 (h) = biological target: T2, MT1 (h) (Homo sapiens, UniProt P48039); assay: Receptor binding screen, [^125I]iodomelatonin; settings: 10 uM Concentration of Compound I-1-Z; read-out: Mean Value, percent inhibition of control specific binding: MT1 (h)
T2 construct: expressed in transfected cells; host or cells: CHO cells
T2 sequence (P48039 whole entry): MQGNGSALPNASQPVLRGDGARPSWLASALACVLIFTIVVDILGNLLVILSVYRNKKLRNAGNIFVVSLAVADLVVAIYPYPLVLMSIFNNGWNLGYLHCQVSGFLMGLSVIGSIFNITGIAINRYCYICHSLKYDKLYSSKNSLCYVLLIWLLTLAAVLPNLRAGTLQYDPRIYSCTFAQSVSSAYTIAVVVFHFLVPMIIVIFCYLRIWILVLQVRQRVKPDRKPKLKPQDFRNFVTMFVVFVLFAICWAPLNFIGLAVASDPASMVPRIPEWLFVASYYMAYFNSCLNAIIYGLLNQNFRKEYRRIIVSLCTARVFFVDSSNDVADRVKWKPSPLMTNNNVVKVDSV

NK3 (h) = biological target: T3, NK3 (h) (Homo sapiens, UniProt P29371); assay: Receptor binding screen, [^3H]SR 142801; settings: 10 uM Concentration of Compound I-1-Z; read-out: Mean Value, percent inhibition of control specific binding: NK3 (h)
T3 construct: expressed in transfected cells; host or cells: CHO cells
T3 sequence (P29371 whole entry): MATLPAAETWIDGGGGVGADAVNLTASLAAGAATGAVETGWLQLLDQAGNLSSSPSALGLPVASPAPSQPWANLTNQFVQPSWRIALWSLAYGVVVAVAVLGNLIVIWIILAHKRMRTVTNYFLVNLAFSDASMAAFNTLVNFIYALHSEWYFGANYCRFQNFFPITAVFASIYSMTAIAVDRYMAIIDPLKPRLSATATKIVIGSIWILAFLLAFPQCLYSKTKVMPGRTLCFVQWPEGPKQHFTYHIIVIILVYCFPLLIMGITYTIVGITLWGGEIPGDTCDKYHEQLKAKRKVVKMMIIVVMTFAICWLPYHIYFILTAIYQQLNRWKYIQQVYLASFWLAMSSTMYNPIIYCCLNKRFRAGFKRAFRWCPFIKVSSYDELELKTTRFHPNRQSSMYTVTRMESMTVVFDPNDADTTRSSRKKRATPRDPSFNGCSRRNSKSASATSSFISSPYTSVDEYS

VIP1 (h) (VPAC1) = biological target: T4, VIP1 (h) (VPAC1) (Homo sapiens, UniProt P32241); assay: Receptor binding screen, [^125I]VIP; settings: 10 uM Concentration of Compound I-1-Z; read-out: Mean Value, percent inhibition of control specific binding: VIP1 (h) (VPAC1)
T4 construct: expressed in transfected cells; host or cells: CHO cells
T4 sequence (P32241 31-457): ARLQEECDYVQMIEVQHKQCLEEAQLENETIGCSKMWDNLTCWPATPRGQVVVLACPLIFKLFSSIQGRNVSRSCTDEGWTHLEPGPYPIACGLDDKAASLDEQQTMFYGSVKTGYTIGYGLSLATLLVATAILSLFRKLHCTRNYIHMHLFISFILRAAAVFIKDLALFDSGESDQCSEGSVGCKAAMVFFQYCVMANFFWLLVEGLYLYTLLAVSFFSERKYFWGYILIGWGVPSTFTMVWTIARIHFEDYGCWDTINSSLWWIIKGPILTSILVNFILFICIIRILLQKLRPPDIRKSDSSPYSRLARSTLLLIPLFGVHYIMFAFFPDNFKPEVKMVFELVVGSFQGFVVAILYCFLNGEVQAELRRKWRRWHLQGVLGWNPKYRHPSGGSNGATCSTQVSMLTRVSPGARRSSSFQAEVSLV

For `COc1ccc(C/C(=C/F)CN)cc1.Cl` [Compound I-1-Z, (Z)-3-Fluoro-2-(4-methoxybenzyl)-allylamine hydrochloride], the “final arthritis score and paw swelling” value [1] was “clearly reduced”, the “absolute decrease in paw swelling at 6 h” value ([2]; 0.1 mg/kg orally one hour before carrageenan, low doses, FIG. 13) was 34±8% and the “absolute decrease in paw swelling at 6 h” value ([2]; 1 mg/kg orally one hour before carrageenan, low doses, FIG. 13) was 29±8%. For the same compound, the “absolute decrease in paw swelling at 6 h” value ([2]; 1 mg/kg, dose response, FIG. 7) was 5±11%, the “absolute decrease in paw swelling at 6 h” value ([2]; 10 mg/kg, dose response, FIG. 7) was 20±9% and the paw swelling ([2]; between 2-6 h) was “clearly reduced the paw swelling”. For the same compound, the “absolute decrease in paw swelling at 6 h” value ([2]; 50 mg/kg, dose response, FIG. 7) was 32±6%, the “inhibition of paw edema at 6 h” value ([2]; therapeutic dosing: 50 mg/kg orally one hour after 0.375% carrageenan, FIG. 8) was 50±4% and the inhibition at 10 µM (CGRP (h)) was -7%. It also gave an inhibition at 10 µM (MT1 (h)) of 0%, an inhibition at 10 µM (NK3 (h)) of 1% and an inhibition at 10 µM (VIP1 (h) (VPAC1)) of -13%.
With `CCOc1ccc(C/C(=C/F)CN)cc1.Cl` [Compound I-2-Z, (Z)-3-Fluoro-2-(4-ethoxybenzyl)-allylamine hydrochloride] the paw swelling ([2]; between 3-6 h) was “clearly reduced the paw swelling”.
In the case of `NC/C(F)=C\Cc1cc(F)cc(C(F)(F)F)c1` [II-1-E, (E)-2-Fluoro-4-(3-fluoro-5-trifluoromethylphenyl)-but-2-enylamine], the paw swelling ([2]; between 2-6 h) is reported as “clearly reduced the paw swelling”.
